{"source": "patent US10039779B2", "about": "“Combination formulation of two antiviral compounds” (priority 2013, dated 2018)", "format_in_all_cases": "physicochemical", "key": {"[1]": {"test": "Excipient and organic solvent solubility", "conditions": "thermodynamic from solid", "method": "Solubility of ledipasvir amorphous free base and ledipasvir crystalline D-tartrate was measured in a wide range of pharmaceutically acceptable solvents, including cosolvents, surfactants, fatty acids, triglycerides, or blends thereof. Material was weighed into scintillation vials and stirred for up to 48 hours at room temperature. In many cases, solubility was higher than the amount of solid used in the sample, thus many results are reported as ‘greater than’ or ‘greater than or equal to’ if the concentration was not quantitatively determined by HPLC-UV."}, "[2]": {"test": "Aqueous solubility with 0.1% w/w surfactants and polymers; dissolution behavior of forms", "conditions": "for solubility: thermodynamic from solid", "method": "Excess solid was added to aqueous buffered solutions; samples were withdrawn at predetermined intervals (2, 5, 8, 10, 15, 20, 30, 45, 60 minutes, and 24 hours), filtered through regenerated cellulose filters, and diluted for concentration measurement by the HPLC-UV method."}, "[3]": {"test": "pH-solubility profile and solubility in simulated intestinal media", "conditions": "for solubility at 48 h: thermodynamic from solid", "method": "Excess solid ledipasvir was added to a range of pH-adjusted aqueous solutions (titrated with HCl or NaOH) and stirred for 48 hours at room temperature. The suspensions were then filtered through regenerated cellulose syringe filters. The pH value of the supernatant was measured, and the supernatant was diluted as appropriate with 50:50 H2O+0.1% TFA:ACN and assayed for ledipasvir content by the HPLC-UV method.\nSolubility of ledipasvir amorphous free base was assessed in three types of simulated intestinal fluids at pH 6.5 or pH 5.0; and simulated intestinal bile salt and lecithin mixture (SIBLM), pH 6.4. Excess solid ledipasvir was added to the respective SIFs and stirred for 48 hours at room temperature. The resulting suspensions were then filtered through regenerated cellulose syringe filters. The supernatant was diluted as appropriate with 50:50 H2O+0.1% TFA:ACN and assayed for ledipasvir content by the HPLC-UV method."}}}
{"smiles": "COC(=O)N[C@H](C(=O)N1CC2(CC2)C[C@H]1c1ncc(-c2ccc3c(c2)C(F)(F)c2cc(-c4ccc5nc([C@@H]6[C@H]7CC[C@H](C7)N6C(=O)[C@@H](NC(=O)OC)C(C)C)[nH]c5c4)ccc2-3)[nH]1)C(C)C", "note": "[Ledipasvir amorphous free base]", "values": [{"measurement": "solubility", "setting": "[1]; oil or lipid", "value": "> 500000", "unit": "µg/mL"}, {"measurement": "solubility", "setting": "[1]; pH 2.5, aqueous with cosolvent or surfactant or cyclodextrin", "value": 25000, "unit": "µg/mL"}, {"measurement": "dissolution behavior relative to other ledipasvir forms", "setting": "[2]; aqueous buffered solutions", "value": "faster than that of the crystalline free base and acetone solvate forms"}, {"measurement": "solubility", "setting": "[2]; aqueous citrate buffer with excipient, pH 2, aqueous with cosolvent or surfactant or cyclodextrin, 0.1% w/w PVP (povidone), pH 2", "value": 5470, "unit": "µg/mL"}, {"measurement": "solubility", "setting": "[2]; aqueous citrate buffer with excipient, pH 2, aqueous with cosolvent or surfactant or cyclodextrin, 0.1% w/w PVP/VA (copovidone), pH 2", "value": 6730, "unit": "µg/mL"}, {"measurement": "solubility", "setting": "[2]; aqueous citrate buffer with excipient, pH 2, aqueous with cosolvent or surfactant or cyclodextrin, 0.1% w/w Sodium lauryl sulfate, pH 2", "value": 50, "unit": "µg/mL"}, {"measurement": "solubility", "setting": "[2]; aqueous citrate buffer with excipient, pH 5, aqueous with cosolvent or surfactant or cyclodextrin, 0.1% w/w PVP (povidone), pH 5", "value": 0.4, "unit": "µg/mL"}, {"measurement": "solubility", "setting": "[2]; aqueous citrate buffer with excipient, pH 5, aqueous with cosolvent or surfactant or cyclodextrin, 0.1% w/w PVP/VA (copovidone), pH 5", "value": 1, "unit": "µg/mL"}, {"measurement": "solubility", "setting": "[2]; aqueous citrate buffer with excipient, pH 5, aqueous with cosolvent or surfactant or cyclodextrin, 0.1% w/w Sodium lauryl sulfate, pH 5", "value": 243, "unit": "µg/mL"}, {"measurement": "solubility", "setting": "[2]; aqueous citrate buffer, no excipient, pH 2, aqueous buffer, pH 2, room temperature", "value": 4940, "unit": "µg/mL"}, {"measurement": "solubility", "setting": "[2]; aqueous citrate buffer, no excipient, pH 5, aqueous buffer, pH 5, room temperature", "value": 0.1, "unit": "µg/mL"}, {"measurement": "solubility", "setting": "[2]; pH 2, aqueous with cosolvent or surfactant or cyclodextrin, 0.1% w/w Cremaphor EL, pH 2", "value": 9110, "unit": "µg/mL"}, {"measurement": "solubility", "setting": "[2]; pH 2, aqueous with cosolvent or surfactant or cyclodextrin, 0.1% w/w HPC (hydroxypropylcellulose), pH 2", "value": 4670, "unit": "µg/mL"}, {"measurement": "solubility", "setting": "[2]; pH 2, aqueous with cosolvent or surfactant or cyclodextrin, 0.1% w/w HPMC (hydroxymethylcellulose), pH 2", "value": 5270, "unit": "µg/mL"}, {"measurement": "solubility", "setting": "[2]; pH 2, aqueous with cosolvent or surfactant or cyclodextrin, 0.1% w/w Labrasol, pH 2", "value": 7440, "unit": "µg/mL"}, {"measurement": "solubility", "setting": "[2]; pH 2, aqueous with cosolvent or surfactant or cyclodextrin, 0.1% w/w Poloxamer 188, pH 2", "value": 7190, "unit": "µg/mL"}, {"measurement": "solubility", "setting": "[2]; pH 2, aqueous with cosolvent or surfactant or cyclodextrin, 0.1% w/w Polysorbate 80, pH 2", "value": 9270, "unit": "µg/mL"}, {"measurement": "solubility", "setting": "[2]; pH 5, aqueous with cosolvent or surfactant or cyclodextrin, 0.1% w/w Cremaphor EL, pH 5", "value": 69.9, "unit": "µg/mL"}, {"measurement": "solubility", "setting": "[2]; pH 5, aqueous with cosolvent or surfactant or cyclodextrin, 0.1% w/w HPC (hydroxypropylcellulose), pH 5", "value": 0.1, "unit": "µg/mL"}, {"measurement": "solubility", "setting": "[2]; pH 5, aqueous with cosolvent or surfactant or cyclodextrin, 0.1% w/w HPMC (hydroxymethylcellulose), pH 5", "value": 0.3, "unit": "µg/mL"}, {"measurement": "solubility", "setting": "[2]; pH 5, aqueous with cosolvent or surfactant or cyclodextrin, 0.1% w/w Poloxamer 188, pH 5", "value": 0.5, "unit": "µg/mL"}, {"measurement": "solubility", "setting": "[2]; pH 5, aqueous with cosolvent or surfactant or cyclodextrin, 0.1% w/w Polysorbate 80, pH 5", "value": 62.4, "unit": "µg/mL"}, {"measurement": "solubility", "setting": "[3]; Aqueous, pH 1.6 (HCl), room temperature", "value": 6855, "unit": "µg/mL"}, {"measurement": "solubility", "setting": "[3]; Aqueous, pH 2.3 (HCl), room temperature", "value": 1096, "unit": "µg/mL"}, {"measurement": "solubility at 48 h", "setting": "[3]; FaSSIF, pH 6.5, fassif, FaSSIF pH = 6.5, room temperature", "value": 25, "unit": "µg/mL"}, {"measurement": "solubility at 48 h", "setting": "[3]; FeSSIF, pH 5, fessif, FeSSIF pH = 5.0, room temperature", "value": 230, "unit": "µg/mL"}, {"measurement": "solubility at 48 h", "setting": "[3]; SIBLM (simulated intestinal bile salt and lecithin mixture), pH 6.4, fassgf or other biorelevant, SIBLM pH = 6.4, room temperature", "value": 232, "unit": "µg/mL"}, {"measurement": "intrinsic solubility (S0)", "setting": "[3]; aqueous, neutral form (pH>5), room temperature", "value": "approximately 0.04 μg/mL"}, {"measurement": "solubility at 48 h", "setting": "[3]; pH-adjusted aqueous solution (HCl), pH 1.6, aqueous buffer, Aqueous, pH 1.6 (HCl), room temperature", "value": "~7000", "unit": "µg/mL"}, {"measurement": "solubility at 48 h", "setting": "[3]; pH-adjusted aqueous solution (HCl), pH 2.3, aqueous buffer, Aqueous, pH 2.3 (HCl), room temperature", "value": 1000, "unit": "µg/mL"}, {"measurement": "solubility at 48 h", "setting": "[3]; pH-adjusted aqueous solution, pH 3.1, aqueous buffer, Aqueous, pH 3.1 (HCl), room temperature", "value": 13.2, "unit": "µg/mL"}, {"measurement": "solubility at 48 h", "setting": "[3]; pH-adjusted aqueous solution, pH 4.1, aqueous buffer, Aqueous, pH 4.1 (HCl), room temperature", "value": 0.11, "unit": "µg/mL"}, {"measurement": "solubility at 48 h", "setting": "[3]; pH-adjusted aqueous solution, pH 5.5, aqueous buffer, Aqueous, pH 5.5 (HCl), room temperature", "value": 0.03, "unit": "µg/mL"}, {"measurement": "solubility at 48 h", "setting": "[3]; pH-adjusted aqueous solution, pH 6.2, water, Aqueous, pH 6.2 (unaltered), room temperature", "value": 0.03, "unit": "µg/mL"}, {"measurement": "solubility at 48 h", "setting": "[3]; pH-adjusted aqueous solution, pH 7.2, aqueous buffer, Aqueous, pH 7.2 (NaOH), room temperature", "value": 0.01, "unit": "µg/mL"}, {"measurement": "increase of solubility in SIBLM over FaSSIF", "setting": "[3]; room temperature", "value": "approximately 10 fold"}]}
